Laboratory results published in patent US10294202B2, “Pyrrolidinones as herbicides” (FMC Corporation, priority 2013, dated 2019).

Legend:
sunflower = assay: Test C pre-/postemergence herbicide test; format: in vivo, Helianthus annuus; details: Preemergence
Text: Seeds of plant species selected from blackgrass (Alopecurus myosuroides), ryegrass, Italian (Italian ryegrass, Lolium multiflorum), wheat (winter wheat, Triticum aestivum), galium (catchweed bedstraw, Galium aparine), corn (Zea mays), crabgrass, large (large crabgrass, Digitaria sanguinalis), foxtail, giant (giant foxtail, Setaria faberii), johnsongrass (Sorghum halepense), lambsquarters (Chenopodium album), morningglory (Ipomoea coccinea), nutsedge, yellow (yellow nutsedge, Cyperus esculentus), pigweed (Amaranthus retroflexus), ragweed (common ragweed, Ambrosia elatior), soybean (Glycine max), barnyardgrass (Echinochloa crus-galli), oilseed rape (Brassica napus), waterhemp (common waterhemp, Amaranthus rudis), kochia (Kochia scoparia), oat, wild (wild oat, Avena fatua), surinam grass (Brachiaria decumbens), foxtail, green (green foxtail, Setaria viridis), goosegrass (Eleusine indica), bromegrass, downy (downy bromegrass, Bromus tectorum), nightshade (eastern black nightshade, Solanum ptycanthum), cocklebur (common cocklebur, Xanthium strumarium), cupgrass, woolly (woolly cupgrass, Eriochloa villosa), bermudagrass (Cynodon dactylon), sunflower, (common oilseed sunflower, Helianthus annuus), Russian thistle (Salsola kali) and velvetleaf (Abutilon theophrasti) were planted into a blend of loam soil and sand and treated preemergence with test chemicals formulated in a non-phytotoxic solvent mixture which included a surfactant. At the same time, plants selected from these crop and weed species and also barley (winter barley, Hordeum vulgare), […]), chickweed (common chickweed, Stellaria media), deadnettle (henbit deadnettle, Lamium amplexicaule), and canarygrass (littleseed canarygrass, Phalaris minor) were planted in pots containing Redi-Earth® planting medium (Scotts Company, 14111 Scottslawn Road, Marysville, Ohio 43041) comprising spaghnum peat moss, vermiculite, wetting agent and starter nutrients and treated with postemergence applications of test chemicals formulated in the same manner. Plants ranged in height from 2 to 18 cm (1- to 4-leaf stage) for postemergence treatments. Treated plants and controls were maintained in a greenhouse for 13 to 15 days, after which time all species were compared to controls and visually evaluated. Plant response ratings, summarized in Table C, are based on a scale of 0 to 100 where 0 is no effect and 100 is complete control. A dash (-) response means no test result.

dayflower, VA = assay: Test E preemergence herbicide test; format: in vivo, Commelina virginica; design: key: 0 = no effect, 100 = complete control
Outline: (§1)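 Seeds sown in silt loam soil received preemergence treatment with compound in a non-phytotoxic solvent mixture containing surfactant. After 21 days in the greenhouse, plants were visually rated against untreated controls on a 0 (no effect) to 100 (complete control) scale.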

beggarticks = assay: Test E preemergence herbicide test; format: in vivo, Bidens pilosa; design: key: 0 = no effect, 100 = complete control
Outline: as §1

foxtail, green = assay: Test C pre-/postemergence herbicide test; format: in vivo, Setaria viridis
Outline: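 Response scores range from 0, meaning no effect, to 100, meaning complete control, assigned visually by comparison with controls roughly two weeks (13 to 15 days) after spraying. Applications were made preemergence to seeded loam–sand soil and postemergence to 1- to 4-leaf plants.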

arrowleaf sida = assay: Test E preemergence herbicide test; format: in vivo, Sida rhombifolia; design: key: 0 = no effect, 100 = complete control
Outline: as §1

bluegrass = assay: Test D pre-/postemergence herbicide test; format: in vivo, Poa annua; details: Postemergence, Bluegrass, scale 0 to 100
Outline: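 Test chemicals, formulated in a non-phytotoxic solvent mixture with surfactant, are sprayed preemergence onto seeds in silt loam and postemergence onto plants of 2–18 cm. Plants are held in a controlled growth environment for 7 to 21 days, then rated visually versus controls (0–100).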

[1] = 125 g ai/ha, scale 0 to 100 (0 no effect, 100 complete control)
[2] = Preemergence, 62 g ai/ha, scale 0 to 100
[3] = Preemergence, 125 g ai/ha, scale 0 to 100 (0 no effect, 100 complete control)
[4] = Preemergence, 31 g ai/ha, scale 0 to 100 (0 no effect, 100 complete control)
[5] = Preemergence, 250 g ai/ha, scale 0 to 100 (0 no effect, 100 complete control)

| SMILES | Plant response rating, Sunflower (sunflower; 62 g ai/ha, scale 0 to 100) | Plant response rating, Sunflower (sunflower; [1]) | Plant response rating, Dayflower, VA (dayflower, VA; 16 g ai/ha) | Plant response rating, Dayflower, VA (dayflower, VA; 31 g ai/ha) | Plant response rating, Dayflower, VA (dayflower, VA; 62 g ai/ha) | Plant response rating, Dayflower, VA (dayflower, VA; 125 g ai/ha) | Plant response rating, Dayflower, VA (dayflower, VA; 250 g ai/ha) | Plant response rating, Foxtail, Green (foxtail, green; [2]) | Plant response rating, Foxtail, Green (foxtail, green; [3]) | Foxtail, Green plant response rating (foxtail, green; [4]) | Plant response rating, Foxtail, Green (foxtail, green; [5]) | Plant response rating, Arrowleaf Sida (arrowleaf sida; 16 g ai/ha) | Plant response rating, Arrowleaf Sida (arrowleaf sida; 31 g ai/ha) | Plant response rating, Arrowleaf Sida (arrowleaf sida; 62 g ai/ha) | Plant response rating, Arrowleaf Sida (arrowleaf sida; 125 g ai/ha) | Plant response rating, Arrowleaf Sida (arrowleaf sida; 250 g ai/ha) | also measured |
| --- | --- | --- | --- | --- | --- | --- | --- | --- | --- | --- | --- | --- | --- | --- | --- | --- | --- |
| O=C1NCC(c2ccc(Cl)c(Cl)c2)C1C(=O)Nc1ccccc1F (racemic) [Compound 14] | 0 | 0 | 0 | 0 | 0 | 0 | 0 | 90 | 90 | 25 | 95 | 0 | 0 | 0 | 0 | 0 | Plant response rating, Beggarticks (beggarticks; 16 g ai/ha): 0; Plant response rating, Beggarticks (beggarticks; 31 g ai/ha): 0; Plant response rating, Beggarticks (beggarticks; 62 g ai/ha): 0; Plant response rating, Beggarticks (beggarticks; 125 g ai/ha): 0; Plant response rating, Beggarticks (beggarticks; 250 g ai/ha): 0 |
| O=C1NCC(c2ccc(F)c(F)c2)C1C(=O)Nc1cccc(F)c1F (stereo not shown) [Compound 17, N-(2,3-difluorophenyl)-4-(3,4-difluorophenyl)-2-oxo-3-pyrrolidinecarboxamide] | 10 | 20 | 0 | 0 | 0 | 0 | 0 | 95 | 98 | 95 | 98 | 0 | 0 | 0 | 0 | 0 | Plant response rating (bluegrass; 16 g ai/ha): 0; Plant response rating (bluegrass; 31 g ai/ha): 0; Plant response rating (bluegrass; 62 g ai/ha): 0; Plant response rating (bluegrass; 125 g ai/ha): 0; Plant response rating (bluegrass; 250 g ai/ha): 0; Plant response rating, Foxtail, Green (foxtail, green; Postemergence, 31 g ai/ha, scale 0 (no effect) to 100 (complete control)): 0; Plant response rating, Foxtail, Green (foxtail, green; Postemergence, 62 g ai/ha, scale 0 to 100 (0 no effect, 100 complete control)): 0; Plant response rating, Foxtail, Green (foxtail, green; Postemergence, 125 g ai/ha, scale 0 to 100 (0 no effect, 100 complete control)): 0; Plant response rating, Foxtail, Green (foxtail, green; Postemergence, 250 g ai/ha, scale 0 to 100 (0 no effect, 100 complete control)): 0 |
